Results as given in US20210318335A1, “BIOMARKERS, COMPOSITIONS, AND METHODS FOR DIAGNOSING AND TREATING SUBJECTS EXPOSED TO PROTEIN/HEPARIN COMPLEXES” (DUKE UNIVERSITY, priority 2018, published 2021).

Legend:
[1] = system: complement activation by PF4/heparin complexes; assay: Antigen-C3c capture ELISA assay: complement activation by PF4/heparin in plasma; format: biochemical, human; settings: for effect of chelator on complement activation by PF4/heparin: 10 mM added to healthy donor plasma prior to PF4/heparin
Protocol: Antigen-C3c capture ELISA assay and Specificity ELISA: Antigen-specific monoclonal antibodies (mouse anti human PF4/heparin; KKO or mouse anti-protamine/heparin; ADA at 2 μg/mL) were incubated overnight on a microtiter plate (in phosphate buffered saline, PBS) followed by washing and blocking with 1% bovine serum albumin (BSA) in PBS for 2 hours. […] Unless specified antigen concentrations were 25 μg/mL (PF4) and 0.25 U/mL (heparin) for KKO coated plates and 125 μg/mL (PRT) and 6 U/mL (heparin) for ADA coated plates. Next, plasma containing antigen fixed by complement activation fragments was added to the capture plate for 1 hr followed by serial washes. Complement-coated antigen was detected using a biotinylated anti-C3c antibody (recognizes C3 and all C3c-containing fragments of C3, including iC3b; Quidel Corporation, San Diego, Calif.) followed by colorimetric detection as previously described. […] IgM studies: Goat anti-human IgM (μ-chain specific) agarose beads were used to deplete IgM from plasma. Anti-IgM or control agarose beads were incubated with plasma and depleted plasma supernatant was analyzed in the antigen-C3c capture assay described above.

[2] = system: B cells; assay: Flow cytometry of whole blood: binding of PF4/heparin, C3c and IgM to B cells; format: cell-based, human; settings: whole blood incubated with PF4 25 μg/mL + heparin 0.25 U/mL; excess heparin wash
Protocol: Flow cytometry studies: Flow-based studies of antigen, complement, or IgM binding to B cells were performed as described previously (Khandelwal S, et al. (2016) Blood, 128(14):1789-1799). Patient samples were processed without addition of exogenous antigen. Cells were analyzed using a BD FACS Canto Flow cytometer (BD Biosciences, Franklin Lakes, N.J.). Signals from a minimum of 10,000 cells were acquired from each sample. Analyses were performed using FCS express software (Version 5 Flow Research Edition; De Novo Software).
To examine if IgM co-localizes with PF4/heparin antigen and complement on B cells, surface IgM on B cells before and after addition of antigen were examined.

## O=C(O)CN(CCN(CC(=O)O)CC(=O)O)CC(=O)O [EDTA, ethylenediaminetetraacetic acid]
[1]
  effect of chelator on complement activation by PF4/heparin: eliminated complement activation

## [Cl-].[Cl-].[Mg+2] [Mg^2+, Magnesium chloride]
[1]; EGTA-treated plasma (10 mM EGTA), MgCl2 10 mM
  effect of Mg2+ supplementation on complement activation by PF4/heparin: did not rescue complement activation

## O=C(O)CN(CCOCCOCCN(CC(=O)O)CC(=O)O)CC(=O)O [EGTA, ethylene glycol-bis (β-aminoethyl ether)-N,N,N′,N′-tetraacetic acid]
[1]
  effect of chelator on complement activation by PF4/heparin: eliminated complement activation

## heparin
[2]
  effect of excess heparin on PF4/heparin and IgM fluorescence on B cells: reduced PF4/heparin and IgM fluorescence to baseline

B1: C1 esterase inhibitor: C1-inhibitor, classical pathway complement inhibitor added to plasma at 10 and 20 IU/mL (protein, UniProt P05155 23-500, looked up)
Plasma protease C1 inhibitor: NPNATSSSSQDPESLQDRGEGKVATTVISKMLFVEPILEVSSLPTTNSTTNSATKITANTTDEPTTQPTTEPTTQPTIQPTQPTTQLPTDSPTQPTTGSFCPGPVTLCSDLESHSTEAVLGDALVDFSLKLYHAFSAMKKVETNMAFSPFSIASLLTQVLLGAGENTKTNLESILSYPKDFTCVHQALKGFTTKGVTSVSQIFHSPDLAIRDTFVNASRTLYSSSPRVLSNNSDANLELINTWVAKNTNNKISRLLDSLPSDTRLVLLNAIYLSAKWKTTFDPKKTRMEPFHFKNSVIKVPMMNSKKYPVAHFIDQTLKAKVGQLQLSHNLSLVILVPQNLKHRLEDMEQALSPSVFKAIMEKLEMSKFQPTLLTLPRIKVTTSQDMLSIMEKLEFFDFSYDLNLCGLTEDPDLQVSAMQHQTVLELTETGVEAAAASAISVARTLLVFEVQQPFLFVLWDQQHKFPVFMGRVYDPRA
[1]; 10 and 20 IU/mL, healthy donor plasma pre-incubated before PF4/heparin
  effect of C1-inhibitor on complement activation by PF4/heparin: complement activation was reduced
